Experimental data: PMC7734281, “Functionalized Oxoindolin Hydrazine Carbothioamide Derivatives as Highly Potent Inhibitors of Nucleoside Triphosphate Diphosphohydrolases” (Frontiers in Pharmacology, 2020)
“Also recorded” adds a separate entry of the source.

Experiments:
[1] = target: T1, h-NTPDase2 (Homo sapiens, UniProt Q9Y5L3); assay: h-NTPDase2 inhibition, malachite green assay; format: biochemical; conditions: Lineweaver-Burk plot
T1 construct: made in house; host or cells: COS-7 cells, transient transfection; crude protein extract after sonication
T1 sequence (Q9Y5L3 1-495): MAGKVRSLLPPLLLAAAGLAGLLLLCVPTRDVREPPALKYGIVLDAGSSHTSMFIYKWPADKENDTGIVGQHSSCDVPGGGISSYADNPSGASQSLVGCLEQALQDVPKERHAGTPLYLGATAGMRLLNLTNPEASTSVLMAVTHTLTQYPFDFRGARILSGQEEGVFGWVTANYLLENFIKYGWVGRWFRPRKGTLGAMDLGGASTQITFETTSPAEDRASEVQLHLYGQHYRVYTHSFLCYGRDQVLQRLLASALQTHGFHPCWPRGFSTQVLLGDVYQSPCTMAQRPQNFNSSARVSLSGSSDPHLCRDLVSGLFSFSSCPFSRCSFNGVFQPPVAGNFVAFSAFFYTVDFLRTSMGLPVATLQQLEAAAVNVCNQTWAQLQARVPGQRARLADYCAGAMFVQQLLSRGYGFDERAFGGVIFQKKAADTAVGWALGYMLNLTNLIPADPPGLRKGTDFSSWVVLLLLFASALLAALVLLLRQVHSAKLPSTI

[2] = tested on: NTPDase3 mRNA; assay: NTPDase3 mRNA expression in mice islets by real time qPCR; format: cell-based
Method: Freshly isolated mice islets were incubated in KRBB at 37°C with glucose (3 mM). After 45 min, these islets were treated with test compounds in KRBB at 37°C for 3 h, in the presence of stimulatory glucose concentration. Once the incubation was complete, supernatant was removed carefully, and RNA was extracted from these islets.
Total RNA was extracted using TRIzol reagent, according to manufacturer’s instruction. The concentration of isolated RNA was quantified by using Lvis plate method (FLUOstar Omega, BMG Labtech, Ortenberg, Germany). This RNA was then reverse transcribed to cDNA in a total reaction volume of 20 µl. Briefly, a reaction mixture containing RNA (1 µg) and oligo-dT (20 μM, 1 µl) was prepared and volume was adjusted to 12 µl with nuclease free water. The prepared mixture was incubated at 65°C for 5 min and then immediately chilled on ice. Afterward, 8 µl of master mix containing 5X reaction buffer (4 µl), rnase inhibitor (1 µl), dNTPs mix (10 mM, 2 µl) and reverse transcriptase (1 µl) was added to above sample. After gentle pipetting, sample was run under following conditions: 25°C for 5 min, 42°C for 70 min and 70°C for 5 min. Once the cDNA was synthesized, real time quantitative PCR was conducted by using PikoReal 96 Real-Time PCR system (Thermo Scientific, Vantaa, Finland). […] Relative expression was determined by normalization to β actin mRNA by ΔΔCT method.

| Mode of inhibition of h-NTPDase2 [1] | Compound | Effect on expression level of β-actin (housekeeping gene) ([2]; mice islets treated 3 h) | Effect on NTPDase3 gene expression (mRNA) ([2]; mice islets treated 3 h at stimulatory glucose, normalized to β actin, versus control) |
| --- | --- | --- | --- |
| competitive | COc1ccc(OC)c(NC(=S)N/N=C2\C(=O)Nc3ccccc32)c1 [8j, (Z)-N-(2,5-dimethoxyphenyl)-2-(2-oxoindolin-3-ylidene)hydrazine-1-carbothioamide] | – | – |
| – | CCNC(=S)N/N=C1\C(=O)Nc2ccccc21 [8m, (Z)-N-ethyl-2-(2-oxoindolin-3-ylidene)hydrazine-1-carbothioamide] | not affected | no significant effect (p > 0.05); also recorded: had not suppressed the gene expression of NTPDase3; also recorded: without affecting the NTPDase3 gene expression |
